For series [1], the target named is T1, neuronal TRPM8 channels (mTRPM8) in dorsal root ganglion neurons (Mus musculus, UniProt Q8R4D5).
T1 construct: neuronal TRPM8 channels expressed in murine primary nociceptor cultures; endogenous in cells; host or cells: primary cultures of mouse dorsal root ganglion neurons
In words: Patch-clamp of WS-12-evoked currents in primary DRG nociceptor cultures. The class given is cell-based, murine. To be noted: WS-12 evoked current, −60 mV, N = 3, n = 8; read-out: IC50 of mTRPM8 current blockade in DRG neurons. The text has this: To examine the in vivo activity of compound 23, we first investigated its inhibitory potency on neuronal TRPM8 channels expressed in murine primary nociceptor cultures by patch‐clamp. […] Alternatively, it could also be due to distinct gating mechanisms of both orthologs or the influence of the neuronal environment.
Primary cultures of neonatal dorsal root ganglia were used for multielectrode array (MEA) and patch‐clamp experiments following established methodologies previously described. Neonatal dorsal root ganglia (DRGs) were obtained from Wistar rats (3–5 days old) and were isolated and digested with 0.25% (w/v) collagenase (type IA) in DMEM GlutaMax with 1% (v/v) penicillin/streptomycin (P/S) solution for 1 h at 37 °C in a 5% CO2 Thermo Scientific incubator. Following digestion, DRGs were mechanically dissociated and passed through a 100 μm cell strainer to obtain single‐cell suspensions. Suspensions were washed with DMEM GlutaMax with 10% (v/v) fetal bovine serum (FBS) and 1% (v/v) penicillin/streptomycin (P/S). Cells were then seeded in microelectrode array chambers coated with poly‐L‐lysine (8.3 μg·mL^−1) and laminin (5 μg·mL^−1). After 1 h, the medium was replaced with DMEM GlutaMax, 10% (v/v) FBS, and 1% (v/v) P/S, supplemented with mouse 2.5S NGF 50 ng·mL^−1 and 1.25 μg·mL^−1 cytosine arabinoside. […]
(The patch-clamp technique gives a direct electrical read-out from membranes.)

Series [2] is described as follows: Metabolic stability and metabolite profile in mouse liver microsomes (MLM). The series is classed as in vitro ADME. To be noted: after 1 h at 37 °C, 50 μM substrate. How it is done:
Because of the lack of systemic activity of compound 23, we evaluated the in vitro plasmatic and hepatic metabolic stability. To this aim, compound 23 was exposed to mouse plasma and mouse liver microsome (MLM) fractions, and the residual substrate was measured after 1 h. Under these conditions, the residual substrate was about 97% and 90% in plasma and microsomes, respectively, denoting that this molecule suffers from mild hydrolysis of the ester group.
Metabolic biotransformation of compound 23 was investigated by tandem high‐resolution mass spectrometry using the software COMPOUND DISCOVERER 3.2™.
The standard incubation mixture (250 μL final volume) was carried out in a 50 mM Tris (tris[hydroxymethyl]aminomethane) buffer (pH 7.4) containing 150 mM KCl, […], 3.3 mM MgCl2, 1.3 mM NADPNa2, 3.3 mM glucose 6‐phosphate, 0.4 units·mL^−1 glucose 6‐phosphate dehydrogenase, acetonitrile as cosolvent (1% of total volume), and the substrate (50 μM). After pre‐equilibration of the mixture, an appropriate volume of MLM suspension was added to give a final protein concentration of 1.0 mg·mL^−1. The mixture was shaken for 60 min at 37 °C using a horizontal shaking thermostatic bath while protecting the samples from light. Control incubations were carried out without the presence of substrate, or NADPH regenerating system, or microsomes. Each incubation was stopped by the addition of 250 μL of ice‐cold acetonitrile, vortexed, and centrifuged at 13 000 r.p.m. for 5 min [68]. The supernatants were analyzed by LC‐UV and LC‐HRMS equipment (see Tables S1 and S2, Fig. S79 for full parameters setting in the Supporting Information).
The metabolic stability of the compound 23 was determined in vitro by measuring the residual peak area after incubation by LC‐UV analysis. Samples were further processed by LC‐HRMS equipment for metabolite profiling. Raw data files were processed using both XCALIBUR® and COMPOUND DISCOVERER 3.2® software (Thermo Scientific) using a customized workflow for the detection and identification of the expected and unknown metabolites (Fig. S80).
(In general: Liver microsomes are vesicles of endoplasmic reticulum, rich in cytochrome P450 enzymes.)

Data on one compound can be found in paper PMC12220852, “An adamantane‐based ligand as a novel chemical tool for thermosensory TRPM8 channel therapeutic modulation” (The Febs Journal, 2025).

One may read the IC50 as the point on the concentration scale where inhibition reaches its midpoint.

T1 sequence (Q8R4D5 whole entry): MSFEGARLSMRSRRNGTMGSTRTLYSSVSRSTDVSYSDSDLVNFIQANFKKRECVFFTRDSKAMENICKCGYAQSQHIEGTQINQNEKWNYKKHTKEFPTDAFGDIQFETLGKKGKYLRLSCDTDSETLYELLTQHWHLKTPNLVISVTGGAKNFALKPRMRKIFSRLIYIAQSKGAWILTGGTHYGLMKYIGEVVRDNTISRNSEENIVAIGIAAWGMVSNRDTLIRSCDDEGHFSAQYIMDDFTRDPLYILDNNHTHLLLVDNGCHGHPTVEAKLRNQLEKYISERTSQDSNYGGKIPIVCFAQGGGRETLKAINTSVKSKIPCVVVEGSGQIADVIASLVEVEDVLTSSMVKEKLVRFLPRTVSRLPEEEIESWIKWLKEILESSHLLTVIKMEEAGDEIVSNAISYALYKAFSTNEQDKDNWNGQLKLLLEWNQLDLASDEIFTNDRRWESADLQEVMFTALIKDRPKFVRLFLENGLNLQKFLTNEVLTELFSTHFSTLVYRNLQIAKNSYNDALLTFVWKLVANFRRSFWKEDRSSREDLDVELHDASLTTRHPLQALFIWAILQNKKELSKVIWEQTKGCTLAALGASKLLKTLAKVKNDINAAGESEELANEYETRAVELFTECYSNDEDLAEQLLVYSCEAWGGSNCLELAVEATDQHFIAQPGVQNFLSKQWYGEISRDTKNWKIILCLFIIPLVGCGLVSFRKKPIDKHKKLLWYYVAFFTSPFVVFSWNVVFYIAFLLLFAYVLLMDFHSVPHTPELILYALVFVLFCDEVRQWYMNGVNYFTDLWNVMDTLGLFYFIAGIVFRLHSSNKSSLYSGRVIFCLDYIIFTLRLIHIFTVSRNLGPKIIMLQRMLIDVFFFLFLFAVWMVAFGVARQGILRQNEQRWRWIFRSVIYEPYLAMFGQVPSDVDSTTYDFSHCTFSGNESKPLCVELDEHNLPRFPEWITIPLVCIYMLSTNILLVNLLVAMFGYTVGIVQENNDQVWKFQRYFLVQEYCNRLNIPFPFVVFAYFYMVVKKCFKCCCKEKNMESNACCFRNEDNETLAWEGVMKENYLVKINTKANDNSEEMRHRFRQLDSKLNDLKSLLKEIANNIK

In the case of `O=C(COC(=O)c1ccccc1-c1ccccc1)NC12CC3CC(CC(C3)C1)C2` [Compound 23, 2‐((3S,5S,7S)‐adamantan‐1‐ylamino)‐2‐oxoethyl [1,1′‐biphenyl]‐2‐carboxylate], the IC50 in series [1] came out at 430 ± 750 nM. Also, the “residual substrate in mouse liver microsomes without NADPH regenerating system” value in series [2] is roughly 90%. The “residual substrate in mouse liver microsomes with NADPH regenerating system” value in series [2] (monooxygenase system activated) is “about 42%”.
